The values below come from patent US11957690B2, “Chromogenic beta-lactamase substrate” (BROWN UNIVERSITY, priority 2018, dated 2024).

Molecules are shown by their SMILES. In brackets after ≈: the same amount, converted by molar mass.

As a reminder, the MIC is the lowest concentration found to suppress growth. Read a high MIC as weaker potency.

The test system of one data set is gram-negative species. The following applies: cited from earlier work.
The subject of a further data set is Staphylococcus aureus. The following applies: cited from earlier work.
Another data set deals with penicillinase. Kind of data set: Color change / absorbance spectrum in penicillinase. It is filed as biochemical. The following applies: for Absorbance/time response in penicillinase, comparison with CENTA: FIG. 5. From the text:
FIG. 3 is a set of absorbance spectrum charts showing the color change of Compound 1 (ANT) in the presence of a β-lactamase came with a definite shift in Compound 1 (ANT) absorbance spectrum upon adding penicillinase, thus cleaving the β-lactam ring and expelling the 3′-leaving group. […] As the β-lactam ring is cleaved by the enzymes, the peak at 260 nm disappears.
FIG. 5 is a comparison between Compound 1 (ANT) response and CENTA response.
FIG. 6 is a chart showing deprotected ANT-maleimide in penicillinase, measuring the absorbance of conjugate at different time points.

Data set [1] addresses T1, β-lactamase from Bacillus cereus (Bacillus cereus, UniProt P04190).
T1 construct: purchased MilliporeSigma
It is filed as biochemical. On the procedure:
(§1) Substrate Compound 2 was tested with a class B β-lactamase from Bacillus cereus (Bebrone et al., Antimicrobial Agents Chemother., 45, 1868-1871 (2001)). Substrate Compound 2 was tested with class C β-lactamases (from Pseudomonas aeruginosa (Mirsalehian et al., Iranian J. Microbiol., 6, 306-310 (2014)) and β-lactamase from Enterobacter cloacae (Seeberg, Tolxdorff-Neutzling & Wiedemann, Antimicrobial Agents Chemother., 23, 918-925 (1983)). These bacteria are present in many infections, including wounds. See, Bodey et al., Clinical Infectious Diseases, 5, 279-313 (2011) and Davin-Regli & Pages, Frontiers in Microbiology, 6, 392 (2015).
The inventors measured the concentration-dependent absorbance shift in a spectral scan of Substrate Compound 2 with different concentrations (U/mL) of β-lactamase from Bacillus cereus or in phosphate-buffered saline after 45 minutes at 37° C. The absorbance signal at 410 nm increased to a maximum as a function of β-lactamase concentration. The inventors also performed these measurements for β-lactamase from Pseudomonas aeruginosa and Enterobacter cloacae.
96-well plate. […] The samples of Substrate Compound 2 in β-lactamases from Bacillus cereus (200 U/mL in M sodium phosphate buffer, pH 7) were incubated for thirty minutes at 37° C. before the absorbance of the solution from 230 to 650 nm was measured using a BioTekQ® […]

The test system of data set [2] is β-lactamases from Bacillus cereus, Pseudomonas aeruginosa, and Enterobacter cloacae. Kind of data set: Michaelis-Menten kinetics of hydrolysis. The settings on record: compared with commercially available chromogenic β-lactamase substrates. It counts as biochemical.
Experimental: To further characterize substrate-enzyme relationships between Substrate Compound 2 and β-lactamases, kinetic parameters were measured using Michaelis-Menten kinetics.
Parameters were determined for Substrate Compound 2 and commercially available chromogenic β-lactamase substrates CENTA and nitrocefin as comparisons, using different β-lactamases. All kinetic experiments were performed for concentrations of Substrate Compound 2 ranging from 0.025-0.2 mg/mL with 10% DMSO, and concentrations of 4 ranging from 1.5-12.1 mg/mL in 0.15 M sodium phosphate buffer pH 7 at 37° C. Hydrolysis of Substrate Compound 2 was measured by continuously recording the change in absorbance at 410 nm on a BioTekQ® Cytation3 plate reader. The kM, kcat, and VMax values were calculated through the initial velocities and the direct fitting of the Michaelis-Menten curve to the data through GraphPad Prism software.
Another data set deals with E. cloacae. Kind of data set: Microdilution assay, antibacterial efficacy (MIC). The settings on record: Enterobacter cloacae, Gram −, βL producing Yes, 18 h, 37° C. It is filed as cell-based.
Data set [3] deals with T2, β-lactamase from Pseudomonas aeruginosa (Pseudomonas aeruginosa, UniProt P24735).
T2 construct: purchased MilliporeSigma
T2 sequence (P24735 27-397): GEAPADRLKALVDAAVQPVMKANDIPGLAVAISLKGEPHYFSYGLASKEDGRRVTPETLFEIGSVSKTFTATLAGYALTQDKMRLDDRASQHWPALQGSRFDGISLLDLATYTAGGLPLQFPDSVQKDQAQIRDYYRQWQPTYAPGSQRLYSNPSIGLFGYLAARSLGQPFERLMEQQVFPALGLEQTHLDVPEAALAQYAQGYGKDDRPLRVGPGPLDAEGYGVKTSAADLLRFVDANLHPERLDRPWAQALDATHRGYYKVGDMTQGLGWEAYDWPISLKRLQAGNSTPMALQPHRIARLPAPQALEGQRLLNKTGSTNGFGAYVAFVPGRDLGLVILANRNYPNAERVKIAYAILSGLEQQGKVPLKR
Kind of data set: Colorimetric / UV-vis response to β-lactamase. It counts as biochemical. The settings on record: 10% DMSO, 37° C. As to the method:
as §1
(§2) 96-well plate. Substrate Compound 2 was dissolved in DMSO at a concentration of two mg/ml. Fifteen μL of Substrate Compound 2 was added to a well of a 96-well plate. […] The samples of Substrate Compound 2 in β-lactamases from Bacillus cereus (200 U/mL in M sodium phosphate buffer, pH 7) were incubated for thirty minutes at 37° C. before the absorbance of the solution from 230 to 650 nm was measured using a BioTekQ®
(§3) Cytation3 plate reader. For the samples in Pseudomonas aeruginosa (50 U/mL in 0.15 M sodium phosphate buffer, pH 7), the absorbance was measured after ninety minutes at 37° C. […] For the samples in Enterobacter cloacae (1 U/ml in M sodium phosphate buffer, pH 7), the absorbance was measured after three hours at 37° C. […]

The target in data set [4] is T3, β-lactamase from Enterobacter cloacae (Enterobacter cloacae, UniProt P05364).
T3 construct: purchased MilliporeSigma
T3 sequence (P05364 21-381): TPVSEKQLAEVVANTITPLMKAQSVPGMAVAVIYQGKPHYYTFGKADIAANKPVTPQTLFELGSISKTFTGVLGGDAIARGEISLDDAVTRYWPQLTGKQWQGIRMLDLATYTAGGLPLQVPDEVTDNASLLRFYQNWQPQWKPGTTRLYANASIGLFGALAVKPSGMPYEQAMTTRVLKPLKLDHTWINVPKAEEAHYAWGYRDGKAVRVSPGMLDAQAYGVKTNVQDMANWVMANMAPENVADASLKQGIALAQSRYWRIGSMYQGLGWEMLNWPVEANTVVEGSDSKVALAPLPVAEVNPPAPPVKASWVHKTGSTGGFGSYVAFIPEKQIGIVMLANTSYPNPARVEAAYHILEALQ
Kind of data set: Colorimetric / UV-vis response to β-lactamase. It counts as biochemical. The settings on record: 10% DMSO, 37° C. As to the method:
as §1, §2, §3

A further data set relates to B. cereus. Kind of data set: Microdilution assay, antibacterial efficacy (MIC). The following applies: Bacillus cereus, Gram +, βL producing Yes, 18 h, 37° C. It counts as cell-based. A general note: Broth dilution looks for growth in wells or tubes with falling amounts of substance.
The test system of a further data set is MRSA MW2. Kind of data set: Microdilution assay, antibacterial efficacy (MIC). It is filed as cell-based, methicillin-resistant Staphylococcus aureus. The settings on record: Staphylococcus aureus, Gram +, βL producing Yes, 18 h, 37° C. As to the method:
(§4) The antibacterial effect of Substrate Compound 2 was tested against Staphylococcus aureus, Escherichia coli, MRSA, and Pseudomonas aeruginosa in a microdilution assay. Substrate Compound 2 was dissolved in dimethyl sulfoxide at a concentration of 2.56 mg/mL and diluted to a concentration of 256 μg/mL in sterile phosphate-buffered saline. Substrate Compound 2 solutions and a control of 10% dimethyl sulfoxide in cation-adjusted Mueller Hinton broth (CMHB) or tryptic soy broth (TSB) were serially diluted 1:2 with cation-adjusted Mueller Hinton broth or tryptic soy broth in a 96-well plate. Cation-adjusted Muller-Hinton broth (CMHB) is commercially available from MilliporeSigma (Billerica, MA, USA).
(§5) Bacteria in its log phase was added to the wells at a final concentration of 10^5 CFU/mL. Positive controls of bacteria cultured in only media and negative controls of cation-adjusted Mueller Hinton broth or tryptic soy broth without bacteria were included. After eighteen hours of shaking at 100 rpm at 37° C., the optical density at 600 nm (OD600) was measured using a BioTekQ® normalized bacteria density was calculated using equation 1: […]

The nature of the next data set: Aqueous solubility. It counts as physicochemical.
The next data set has as its system E. coli 25922. Kind of data set: Microdilution assay, antibacterial efficacy (MIC). It is filed as cell-based. The following applies: Escherichia coli, Gram −, βL producing Yes, 18 h, 37° C. As to the method: as §4, §5
The next data set deals with S. aureus 29213. Kind of data set: Microdilution assay, antibacterial efficacy (MIC). It is filed as cell-based. The following applies: Staphylococcus aureus, Gram +, βL producing Yes, 18 h, 37° C. As to the method: as §4, §5
In another data set the test system is S. aureus 25923. Kind of data set: Microdilution assay, antibacterial efficacy (MIC). It counts as cell-based. The settings on record: Staphylococcus aureus, Gram +, βL producing No, 18 h, 37° C. On the procedure:
as §4, §5

The subject of the next data set is P. aeruginosa PA01. Kind of data set: Microdilution assay, antibacterial efficacy (MIC). It is filed as cell-based. The following applies: Pseudomonas aeruginosa, Gram −, βL producing Yes, 18 h, 37° C. On the procedure:
as §4, §5

T1 sequence (P04190 31-257): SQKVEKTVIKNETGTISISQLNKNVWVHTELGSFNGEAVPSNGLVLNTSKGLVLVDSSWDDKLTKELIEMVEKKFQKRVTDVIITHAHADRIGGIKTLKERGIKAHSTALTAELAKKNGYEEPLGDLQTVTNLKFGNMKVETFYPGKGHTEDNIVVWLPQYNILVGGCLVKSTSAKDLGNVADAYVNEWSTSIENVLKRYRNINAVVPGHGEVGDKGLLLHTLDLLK

As for `CN(C)c1ccc(N=Nc2cccc[n+]2CC2=C(C(=O)[O-])N3C(=O)[C@@H](NC(=O)Cc4cccs4)[C@H]3SC2)cc1` [PADAC], in the data set with gram-negative species, the “Antibacterial activity against gram-negative species” value is given as “not antibacterial”. Moreover, the “Antibacterial activity against Staphylococcus aureus” value in the data set on Staphylococcus aureus was “some activity”.

Consider `O=C(Cc1cccs1)N[C@@H]1C(=O)N2C(C(=O)O)=C(/C=C/c3ccc([N+](=O)[O-])cc3[N+](=O)[O-])CS[C@H]12` [nitrocefin], for which the “Antibacterial activity against gram-negative species” value in the data set with gram-negative species is recorded as “not antibacterial”. Also, the “Antibacterial activity against Staphylococcus aureus” value in the data set with Staphylococcus aureus is “some activity”.

For the molecule `O=C(Cc1cccs1)N[C@@H]1C(=O)N2C(C(=O)O)=C(CSc3ccc([N+](=O)[O-])c(C(=O)O)c3)CS[C@H]12` [CENTA], in the data set with gram-negative species, the “Antibacterial activity against gram-negative species” value was “not antibacterial”. In addition, in the data set with Staphylococcus aureus, the “Antibacterial activity against Staphylococcus aureus” value is on record as “some activity”. In the data set with penicillinase, the “Absorbance/time response in penicillinase, comparison with CENTA” value is reported as “reaches its maximum absorbance at a faster rate than Compound 1 (ANT)”.

As for `COc1ccc(COC(=O)C2=C(CSc3ccc([N+](=O)[O-])cc3)CSC3C(N)C(=O)N23)cc1` (stereo not drawn) [Compound 1], in the data set with penicillinase (1.5 hours at 37° C.), the “Color change in penicillinase compared to PBS” value was “showed a significant color change” and the “Shift of maximum absorbance peak on cleavage by penicillinase” value is “maximum absorbance peak shifts from 345 nm to 410 nm”. Further, in the data set with penicillinase (Example 1, protected conjugate of ACLE and NBT), the “Color change of the conjugate incubated in penicillinase or phosphate-buffered saline” value is “does not undergo a color change”. Further, the “Absorbance/time response in penicillinase, comparison with CENTA” value in the data set with penicillinase is listed as “behave similarly”.

Take `NC1C(=O)N2C(C(=O)O)=C(CSc3ccc([N+](=O)[O-])cc3)CSC12` (stereo not drawn) [Substrate Compound 2]: the “Lower detection limit of β-lactamase” value in data set [1] (absorbance at 410 nm, 45 minutes at 37° C., β-lactamase 0.78-400 U/mL) is listed as “approximately 3.12 U/mL”. The “Color change when mixed with β-lactamase” value is given as “changed color from clear to yellow” in data set [1] (β-lactamase from Bacillus cereus, 10% DMSO, 37° C.); “changed color from clear to yellow” in data set [3]; “changed color from clear to yellow” in data set [4]. The “Kinetic rate of hydrolysis by β-lactamases” value in [2] is reported as “kinetic rate similar to commercially available chromogenic β-lactamase substrates”. For the same molecule, the MIC with E. cloacae is more than 128 µg/mL; with B. cereus it was more than 128 µg/mL; in the data set with MRSA MW2, more than 128 µg/mL; against E. coli 25922, more than 128 µg/mL; against S. aureus 29213, 8 µg/mL (≈ 21.8 µM); against S. aureus 25923, 8 µg/mL (≈ 21.8 µM). In the data set with P. aeruginosa PA01, this molecule gave an MIC of more than 128 µg/mL. The Aqueous solubility result in “Aqueous solubility” is “not soluble in aqueous conditions”.
